Reference: patent publication US8846733B2, “Oxazolyl-methylether derivatives as ALX receptor agonists” (Actelion Pharmaceuticals Ltd., priority 2010, dated 2014)

Molecular target: T1, recombinant human ALX receptor (Homo sapiens, UniProt P25090)
T1 construct: expressed in transfected cells; host or cells: HEK293 (HEK293-hALXR-Gα16)
T1 sequence (P25090 1-351): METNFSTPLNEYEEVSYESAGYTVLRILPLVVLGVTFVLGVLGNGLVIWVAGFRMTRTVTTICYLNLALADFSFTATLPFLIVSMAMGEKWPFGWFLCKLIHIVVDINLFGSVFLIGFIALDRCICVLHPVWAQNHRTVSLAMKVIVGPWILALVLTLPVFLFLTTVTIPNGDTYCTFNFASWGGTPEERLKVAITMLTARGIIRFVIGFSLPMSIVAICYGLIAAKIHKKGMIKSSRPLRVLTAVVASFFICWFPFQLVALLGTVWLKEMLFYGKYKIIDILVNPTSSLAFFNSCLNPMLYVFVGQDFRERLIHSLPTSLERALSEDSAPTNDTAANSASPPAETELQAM
Test: Intracellular calcium measurements (FLIPR), ALX receptor agonistic activity
Assay type: cell-based
Conditions: HEK293-hALXR-Gα16 cells; Table 1, exemplified compounds
Procedure: The ALX receptor agonistic activity of the compounds of formula (I) is determined in accordance with the following experimental method.
Intracellular Calcium Measurements:
Cells expressing recombinant human ALX receptor and the G-protein Gα16 (HEK293-hALXR-Gα16) were grown to 80% confluency in Growing Medium (GM). Cells were detached from culture dishes with a cell dissociation buffer (Invitrogen, 13151-014), and collected by centrifugation at 1,000 rpm at rt for 5 min in Assay Buffer (AB) (equal parts of Hank's BSS (Gibco, 14065-049) and DMEM without Phenol Red (Gibco, 11880-028)). After 60 min incubation at 37° C. under 5% CO2 in AB supplemented with 1 μM Fluo-4 (AM) (Invitrogen, F14202) and 20 mM HEPES (Gibco, 15630-056), the cells were washed and resuspended in AB. They were then seeded onto 384-well FLIPR assay plates (Greiner, 781091) at 50,000 cells in 70 μl per well and sedimented by centrifugation at 1,000 rpm for 1 min. Stock solutions of test compounds were made up at a concentration of 10 mM in DMSO, and serially diluted in AB to concentrations required for activation dose response curves. WKYMVm (Phoenix Peptides) was used as a reference agonist. A FLIPR Tetra instrument (Molecular Devices) was operated according to the manufacturer's standard instructions, adding 4 μl of test compound dissolved at 10 mM in DMSO and diluted prior to the experiment in assay buffer to obtain the desired final concentration. Changes in fluorescence were monitored before and after the addition of test compounds at lex=488 nm and lem=540 nm. Emission peak values above base level after compounds addition were exported after base line subtraction. Values were normalized to high-level control (WKYMVm compound, 10 nM final concentration) after subtraction of the base line value (AB addition).

EC50 [nM]	SMILES
6.6	COC(C)(C)c1coc(Cn2ncc(NC(=O)c3nc(C)oc3-c3cccc(C)c3)n2)n1 [Example 1, N-(2-((4-(2-Methoxypropan-2-yl)oxazol-2-yl)methyl)-2H-1,2,3-triazol-4-yl)-2-methyl-5-(m-tolyl)oxazole-4-carboxamide]
5	COCc1coc(Cn2ncc(NC(=O)c3ncoc3-c3ccccc3)n2)n1 [Example 13, N-(2-((4-(Methoxymethyl)oxazol-2-yl)methyl)-2H-1,2,3-triazol-4-yl)-5-phenyloxazole-4-carboxamide]
11.6	COCc1coc(Cn2ncc(NC(=O)c3nc(C4CC4)oc3-c3cccc(C)c3)n2)n1 [Example 12, 2-Cyclopropyl-N-(2-((4-(methoxymethyl)oxazol-2-yl)methyl)-2H-1,2,3-triazol-4-yl)-5-(m-tolyl)oxazole-4-carboxamide]
4.6	COCc1coc(Cn2ncc(NC(=O)c3ncoc3-c3cccc(C)c3)n2)n1 [Example 10, N-(2-((4-(Methoxymethyl)oxazol-2-yl)methyl)-2H-1,2,3-triazol-4-yl)-5-(m-tolyl)oxazole-4-carboxamide]
5.6	COCc1coc(Cn2ncc(NC(=O)c3nc(C)oc3-c3cccc(C(F)(F)F)c3)n2)n1 [Example 5, N-(2-((4-(Methoxymethyl)oxazol-2-yl)methyl)-2H-1,2,3-triazol-4-yl)-2-methyl-5-(3-(trifluoromethyl)phenyl)oxazole-4-carboxamide]
4.3	COCc1coc(Cn2ncc(NC(=O)c3nc(C)oc3-c3ccccc3)n2)n1 [Example 3, N-(2-((4-(Methoxymethyl)oxazol-2-yl)methyl)-2H-1,2,3-triazol-4-yl)-2-methyl-5-phenyloxazole-4-carboxamide]
8.8	COCc1coc(Cn2ncc(NC(=O)c3nc(C)oc3-c3cccc(OC)c3)n2)n1 [Example 8, N-(2-((4-(Methoxymethyl)oxazol-2-yl)methyl)-2H-1,2,3-triazol-4-yl)-5-(3-methoxyphenyl)-2-methyloxazole-4-carboxamide]
7.4	COCc1coc(Cn2ncc(NC(=O)c3nc(C)oc3-c3cccc(OC(F)(F)F)c3)n2)n1 [Example 11, N-(2-((4-(Methoxymethyl)oxazol-2-yl)methyl)-2H-1,2,3-triazol-4-yl)-2-methyl-5-(3-(trifluoromethoxy)phenyl)oxazole-4-carboxamide]
2.1	COCc1coc(Cn2ncc(NC(=O)c3nc(C)oc3-c3cccc(Cl)c3)n2)n1 [Example 4, 5-(3-Chlorophenyl)-N-(2-((4-(methoxymethyl)oxazol-2-yl)methyl)-2H-1,2,3-triazol-4-yl)-2-methyloxazole-4-carboxamide]
8.6	CCOCc1coc(Cn2ncc(NC(=O)c3ncoc3-c3ccccc3)n2)n1 [Example 15, N-(2-((4-(ethoxymethyl)oxazol-2-yl)methyl)-2H-1,2,3-triazol-4-yl)-5-phenyloxazole-4-carboxamide]
3.7	COCc1coc(Cn2ncc(NC(=O)c3nc(C)oc3-c3cccc(F)c3)n2)n1 [Example 9, 5-(3-Fluorophenyl)-N-(2-((4-(methoxymethyl)oxazol-2-yl)methyl)-2H-1,2,3-triazol-4-yl)-2-methyloxazole-4-carboxamide]
4	COCc1coc(Cn2ncc(NC(=O)c3ncoc3-c3cccc(Cl)c3)n2)n1 [Example 6, 5-(3-Chlorophenyl)-N-(2-((4-(methoxymethyl)oxazol-2-yl)methyl)-2H-1,2,3-triazol-4-yl)oxazole-4-carboxamide]
6.7	CCOCc1coc(Cn2ncc(NC(=O)c3nc(C)oc3-c3cccc(C)c3)n2)n1 [Example 14, N-(2-((4-(ethoxymethyl)oxazol-2-yl)methyl)-2H-1,2,3-triazol-4-yl)-2-methyl-5-(m-tolyl)oxazole-4-carboxamide]

Same assay, conditions: HEK293-hALXR-Gα16 cells; Table 2, compound failing within formula I of WO 2009/077990

EC50 [nM]	SMILES
73	CC(=O)c1ncc(Cn2ncc(NC(=O)c3ncoc3-c3ccccc3)n2)s1 [example 67]
88	CC(=O)c1cnc(Cn2ncc(NC(=O)c3ncoc3-c3ccccc3)n2)s1 [example 73]
93	CC(=O)c1nc(Cn2ncc(NC(=O)c3ncoc3-c3ccccc3)n2)cs1 [example 45]

Continued, compound first:

SMILES	EC50 [nM]
CC(=O)c1nc(Cn2ncc(NC(=O)c3ncoc3-c3ccccc3)n2)co1	1.5
CC(=O)c1csc(Cn2ncc(NC(=O)c3ncoc3-c3ccccc3)n2)n1 [example 39]	8.1
CC(=O)c1nc(Cn2ncc(NC(=O)c3nc(C)oc3-c3cccc(C)c3)n2)co1	0.9

Same assay, conditions: HEK293-hALXR-Gα16 cells; Table 2, reference compounds

EC50 [nM]	SMILES
146	COCc1nc(Cn2ncc(NC(=O)c3ncoc3-c3ccccc3)n2)cs1 [reference compound 6, N-(2-((2-(methoxymethyl)thiazol-4-yl)methyl)-2H-1,2,3-triazol-4-yl)-5-phenyloxazole-4-carboxamide]
2300	COCc1ccc(Cn2ncc(NC(=O)c3ncoc3-c3ccccc3)n2)s1 [reference compound 4, N-(2-((5-(methoxymethyl)thiophen-2-yl)methyl)-2H-1,2,3-triazol-4-yl)-5-phenyloxazole-4-carboxamide]
48	COCc1csc(Cn2ncc(NC(=O)c3ncoc3-c3ccccc3)n2)n1 [reference compound 5, N-(2-((4-(methoxymethyl)thiazol-2-yl)methyl)-2H-1,2,3-triazol-4-yl)-5-phenyloxazole-4-carboxamide]
8.1	COCc1nc(Cn2ncc(NC(=O)c3nc(C)oc3-c3cccc(C)c3)n2)co1 [reference compound 10, N-(2-((2-(Methoxymethyl)oxazol-4-yl)methyl)-2H-1,2,3-triazol-4-yl)-2-methyl-5-(m-tolyl)oxazole-4-carboxamide]
498	COCc1ccc(Cn2ncc(NC(=O)c3ncoc3-c3ccccc3)n2)o1 [reference compound 3, N-(2-((5-(methoxymethyl)furan-2-yl)methyl)-2H-1,2,3-triazol-4-yl)-5-phenyloxazole-4-carboxamide]
2540	COCc1cnc(Cn2ncc(NC(=O)c3nc(C)oc3-c3cccc(C)c3)n2)s1 [reference compound 2, N-(2-((5-(Methoxymethyl)thiazol-2-yl)methyl)-2H-1,2,3-triazol-4-yl)-2-methyl-5-(m-tolyl)oxazole-4-carboxamide]
5950	COCc1cnc(Cn2ncc(NC(=O)c3ncoc3-c3ccccc3)n2)s1 [reference compound 8, N-(2-((5-(methoxymethyl)thiazol-2-yl)methyl)-2H-1,2,3-triazol-4-yl)-5-phenyloxazole-4-carboxamide]
685	COC(C)(C)c1nc(Cn2ncc(NC(=O)c3ncoc3-c3ccccc3)n2)co1 [reference compound 9, N-(2-((2-(2-methoxypropan-2-yl)oxazol-4-yl)methyl)-2H-1,2,3-triazol-4-yl)-5-phenyloxazole-4-carboxamide]
4810	COCc1ncc(Cn2ncc(NC(=O)c3nc(C)oc3-c3cccc(C)c3)n2)s1 [reference compound 1, N-(2-((2-(Methoxymethyl)thiazol-5-yl)methyl)-2H-1,2,3-triazol-4-yl)-2-methyl-5-(m-tolyl)oxazole-4-carboxamide]
8130	COCc1ncc(Cn2ncc(NC(=O)c3ncoc3-c3ccccc3)n2)s1 [reference compound 7, N-(2-((2-(methoxymethyl)thiazol-5-yl)methyl)-2H-1,2,3-triazol-4-yl)-5-phenyloxazole-4-carboxamide]
